The source of these data is US11155571B2, “Salt of pyranose-substituted heterocyclic compound, preparation method therefor and use thereof” (Yabao Pharmaceutical Group Co., Ltd., priority 2018, dated 2021).

This data set can be described thus: Solubility in water. It counts as physicochemical.

Where only a bound is given, the exact number is not on record here.

In the case of `Cc1cccc2c1c(Cc1ccc(OCCCN3CCCC4(CCN(C(=O)CNC(=O)NCC(C)C)CC4)C3)cc1)cn2C1O[C@H](CO)[C@@H](O)[C@H](O)[C@H]1O` (stereo partly shown) [compound represented by formula (II)], the solubility was less than 2300 µg/mL.
